Measurements reported in US20170156324A1 (Dow AgroSciences LLC, priority 2015, published 2017).
Several values for one entry are separate records, joined by “and”; a condition that tells them apart may be missing. Equal values may be shown once.

What was measured:
Type in all cases: in vivo
[1] = test system: Matricaria inodora (scentless mayweed, MATIN); experiment: Field trial, post-emergence % visual weed control, MATIN; conditions: 14DAA, 12 g ai/ha
Source text: (§1) Except for the trials utilizing the OD formulations, Actirob B was applied at 0.5 or 1.0 liters per hectare (L/ha), or Polyglycol 26-2 was applied at 0.5 to 1.0 L/ha in all respective single and tankmixture treatments being evaluated.
(§2) Trials were established as randomized complete blocks (RCBD) with three to four replicates. Individual treatments were 2-2.5 meters (m) wide and 6-20 m long. An untreated control was included in each trial. All trial sites had naturally occurring populations of weeds.
(§3) Herbicides were applied with backpack or bicycle sprayers using compressed air, nitrogen (N2) or carbon dioxide (CO2) as a propellant. All sprayers delivered a uniform spray pattern that provided thorough coverage of the foliage using a water volume of 150-300 L/ha. All herbicides were applied post-emergence in the spring to early-summer At the time of herbicide applications, winter wheat crops were at the six-leaf to three-tiller stage. Broadleaf and grass weeds were at a similar stage of growth at the time of herbicide application, typically from five leaf to 3 tiller depending on the weed species and time of year.
(§4) The treated plots and control plots were rated blind at various intervals after application. […] The control of the target weeds was visually assessed as percent control, compared to an untreated control plot. The assessments were based on a percent visual reduction in pest plant biomass and/or stand reduction of weed population.
(§5) The efficacy of all treatments was assessed at 13-22 days after application (DAA) for an early season rating, 23-39 DAA for a mid-season rating, and 41-84 DAA for a late-season rating. The data were statistically analyzed using various statistical methods, generally including a Tukey's HSD Factorial Analysis of Variance with a significance level of 5%.
(§6) Colby's equation was used to determine the herbicidal effects expected from the mixtures (Colby, S. R. Calculation of the synergistic and antagonistic response of herbicide combinations. Weeds 1967, 15, 20-22). A t-test (alpha=0.05) between Colby predictions and observed combinations was used to test for significant differences indicating synergy or antagonism using replicate data.
(§7) Expected=A+B+C−(AB+AC+BC)/100+(ABC)/10,000

[2] = test system: Viola arvensis Murr. (field violet, VIOAR); experiment: Field trial, post-emergence % visual weed control, VIOAR; conditions: 12 g ai/ha
Source text: as §1, §2, §3, §4, §5, §6, §7

[3] = test system: Lamium purpureum L. (purple deadnettle, LAMPU); experiment: Field trial, post-emergence % visual weed control, LAMPU
Source text: as §1, §2, §3, §4, §5, §6, §7

[4] = test system: Matricaria recutita L. (wild chamomile, MATCH); experiment: Field trial, post-emergence % visual weed control, MATCH
Source text: as §1, §2, §3, §4, §5, §6, §7

[5] = test system: Stellaria media (L.) Vill. (common chickweed, STEME); experiment: Field trial, post-emergence % visual weed control, STEME
Source text: as §1, §2, §3, §4, §5, §6, §7

[6] = test system: Centaurea cyanus (cornflower, CENCY); experiment: Field trial, post-emergence % visual weed control, CENCY; conditions: 12 g ai/ha
Source text: as §1, §2, §3, §4, §5, §6, §7

[7] = test system: Galium aparine L. (catchweed bedstraw, GALAP); experiment: Field trial, post-emergence % visual weed control, GALAP; conditions: 28DAA, 12 g ai/ha
Source text: as §1, §2, §3, §4, §5
(§8) Colby's equation was used to determine the herbicidal effects expected from the mixtures (Colby, S. R. Calculation of the synergistic and antagonistic response of herbicide combinations. Weeds 1967, 15, 20-22). […]

[8] = test system: Solanum nigrum L. (black nightshade, SOLNI); experiment: Field trial, post-emergence % visual weed control, SOLNI; conditions: 18.75 g ai/ha
Source text: as §1, §2, §3, §4, §5, §6, §7

[9] = test system: Consolida regalis S. F. Gray (branching larkspur, CNSRE); experiment: Field trial, post-emergence % visual weed control, CNSRE; conditions: 12 g ai/ha
Source text: as §1, §2, §3, §4, §5, §6, §7

[10] = test system: Agropyron repens L. (quackgrass, AGRRE); experiment: Field trial, post-emergence % visual weed control, AGRRE; conditions: 14DAA, 12 g ai/ha
Source text: as §1, §2, §3, §4, §5, §8

[11] = test system: Alopecurus myosuroides Huds. (blackgrass, ALOMY); experiment: Field trial, post-emergence % visual weed control, ALOMY; conditions: 15DAA, 12 g ai/ha
Source text: as §1, §2, §3, §4, §5, §8

[12] = test system: Apera spica-venti (L.) Beauv. (windgrass, APESV); experiment: Field trial, post-emergence % visual weed control, APESV; conditions: 12 g ai/ha
Source text: as §1, §2, §3, §4, §5, §6, §7

[13] = test system: Echinochloa crus-galli (L.) P. Beauv. (barnyardgrass, ECHCG); experiment: Field trial, post-emergence % visual weed control, ECHCG; conditions: 18.75 g ai/ha
Source text: as §1, §2, §3, §4, §5, §6, §7

[14] = test system: Lolium L. sp. (ryegrass, LOLSS); experiment: Field trial, post-emergence % visual weed control, LOLSS; conditions: 14DAA, 18.75 g ai/ha
Source text: as §1, §2
(§9) Herbicides were applied with backpack or bicycle sprayers using compressed air, nitrogen (N2) or carbon dioxide (CO2) as a propellant. All sprayers delivered a uniform spray pattern that provided thorough coverage of the foliage using a water volume of 150-300 L/ha. […]
(§10) The treated plots and control plots were rated blind at various intervals after application. […] The control of the target weeds was visually assessed as percent control, compared to an untreated control plot. […]
(§11) The efficacy of all treatments was assessed at 13-22 days after application (DAA) for an early season rating, 23-39 DAA for a mid-season rating, and 41-84 DAA for a late-season rating. The data were statistically analyzed using various statistical methods, generally including a Tukey's HSD Factorial Analysis of Variance with a significance level of 5%. […]

[15] = test system: Lolium multiflorum Lam. (Italian ryegrass, LOLMU); experiment: Field trial, post-emergence % visual weed control, LOLMU; conditions: 22.5 g ai/ha
Source text: as §1, §2, §9, §10, §11

[16] = test system: Lolium rigidum (rigid ryegrass, LOLRI); experiment: Field trial, post-emergence % visual weed control, LOLRI; conditions: 28DAA, 22.5 g ai/ha
Source text: as §1, §2, §9, §10, §11

[17] = test system: Avena macrocarpa Moench (wild red oat, AVEST); experiment: Field trial, post-emergence % visual weed control, AVEST; conditions: 32DAA, 18.75 g ai/ha
Source text: as §1, §2, §9, §10, §11

[18] = test system: Papaver rhoeas L. (common poppy, PAPRH); experiment: Field trial, post-emergence % visual weed control, PAPRH; conditions: 56DAA, 22.5 g ai/ha
Source text: as §1, §2, §9, §10, §11

[19] = test system: Avena sp. (oats, AVESS); experiment: Field trial, post-emergence % visual weed control, AVESS; conditions: 76DAA, 18.75 g ai/ha
Source text: as §1, §2, §9, §10, §11

COc1cc(OC)n2nc(NS(=O)(=O)c3c(C(F)(F)F)ccnc3OC)nc2n1 [Pyroxsulam, N-(5,7-dimethoxy[1,2,4]triazolo[1,5-a]pyrimidin-2-yl)-2-methoxy-4-(trifluoromethyl)-pyridine-3-sulfonamide]
Mean % Weed Control [1]: 20.0%
Mean % Weed Control ([2]; 14DAA): 61.3%
Mean % Weed Control ([2]; 56DAA): 93.8%
Mean % Weed Control ([3]; 15DAA, 9.6 g ai/ha): 16.3%
Mean % Weed Control ([3]; 15DAA, 12 g ai/ha): 10.0%
Mean % Weed Control ([3]; 32DAA, 9.6 g ai/ha): 0.0%
Mean % Weed Control ([4]; 15DAA, 9.6 g ai/ha): 12.8%
Mean % Weed Control ([4]; 61DAA, 9.6 g ai/ha): 16.3% and 23.7%
Mean % Weed Control ([4]; 61DAA, 12 g ai/ha): 20.0% and 26.3%
Mean % Weed Control ([4]; 78DAA, 9.6 g ai/ha): 17.0%
Mean % Weed Control ([4]; 78DAA, 12 g ai/ha): 18.8%
Mean % Weed Control ([5]; 15DAA, 9.6 g ai/ha): 0.0%
Mean % Weed Control ([5]; 15DAA, 12 g ai/ha): 0.0%
Mean % Weed Control ([5]; 61DAA, 9.6 g ai/ha): 5.0% and 11.1%
Mean % Weed Control ([5]; 61DAA, 12 g ai/ha): 3.8% and 9.7%
Mean % Weed Control ([5]; 78DAA, 9.6 g ai/ha): 16.3%
Mean % Weed Control ([5]; 78DAA, 12 g ai/ha): 13.8%
Mean % Weed Control ([6]; 28DAA): 38.8%
Mean % Weed Control ([6]; 77DAA): 15.0%
Mean % Weed Control ([6]; 84DAA): 12.5%
Mean % Weed Control [7]: 89.5%
Mean % Weed Control ([8]; 29DAA): 50.0%
Mean % Weed Control ([8]; 56DAA): 30.0%
Mean % Weed Control ([9]; 31DAA): 66.8%
Mean % Weed Control ([9]; 53DAA): 70.0%
Mean % Weed Control ([9]; 84DAA): 70%
Mean % Weed Control [10]: 37.5%
Mean % Weed Control [11]: 27.5%
Mean % Weed Control ([12]; 14DAA): 72.5%
Mean % Weed Control ([12]; 28DAA): 88.8%
Mean % Weed Control ([12]; 56DAA): 94.5%
Mean % Weed Control ([13]; 14DAA): 85.0%
Mean % Weed Control ([13]; 29DAA): 75.0%
Mean % Weed Control ([13]; 56DAA): 60.0%
Mean % Weed Control [14]: 90.0%
Mean % Weed Control ([15]; 28DAA): 72.5%
Mean % Weed Control ([15]; 55DAA): 72.5%
Mean % Weed Control [16]: 72.5%
Mean % Weed Control [17]: 97.8%
Mean % Weed Control [18]: 1.9%
Mean % Weed Control [19]: 62.0%
